Measurements taken from ChEMBL document CHEMBL1255329, “Effect of polysorbate 80 on oritavancin binding to plastic surfaces: implications for susceptibility testing” (2008).

Key:
Type in all cases: functional
Streptococcus pyogenes [1] = assay: Ratio of MIC for Streptococcus pyogenes clinical isolate to MIC for Streptococcus pyogenes clinical isolate in presence of 0.002% polysorbate 80
Streptococcus agalactiae [2] = assay: Ratio of MIC for Streptococcus agalactiae clinical isolate to MIC for Streptococcus agalactiae clinical isolate in presence of 0.002% polysorbate 80
Streptococcus pneumoniae [3] = assay: Antibacterial activity against Streptococcus pneumoniae ATCC 49619 in BHI broth by broth microdilution method in absence of 0.002% polysorbate 80
Enterococcus faecalis [4] = assay: Antibacterial activity against Enterococcus faecalis ATCC 29212 in CAMHB medium containing 2% LHB by broth microdilution method in absence of 0.002% polysorbate 80
Streptococcus pneumoniae [5] = assay: Antibacterial activity against Streptococcus pneumoniae clinical isolate by broth microdilution method
Enterococcus faecalis [6] = assay: Antibacterial activity against Enterococcus faecalis clinical isolate by broth microdilution method
Streptococcus viridans [7] = assay: Ratio of MIC for Streptococcus viridans group clinical isolate to MIC for Streptococcus viridans group clinical isolate in presence of 0.002% polysorbate 80
[8] = Antibacterial activity against Streptococcus Group C clinical isolate by broth microdilution method; settings: Streptococcus sp. 'group C'
[9] = Antibacterial activity against Streptococcus Group G clinical isolate by broth microdilution method in presence of 0.002% polysorbate 80; settings: Streptococcus sp. 'group G'
Streptococcus viridans [10] = assay: Antibacterial activity against Streptococcus viridans group clinical isolate by broth microdilution method
Enterococcus faecalis [11] = assay: Antibacterial activity against Enterococcus faecalis clinical isolate by broth microdilution method in presence of 0.002% polysorbate 80
[12] = Antibacterial activity against Streptococcus Group C clinical isolate by broth microdilution method in presence of 0.002% polysorbate 80; settings: Streptococcus sp. 'group C'
Staphylococcus aureus [13] = assay: Ratio of MIC for Staphylococcus aureus clinical isolate to MIC for Staphylococcus aureus clinical isolate in presence of 0.002% polysorbate 80
Staphylococcus aureus [14] = assay: Antibacterial activity against Staphylococcus aureus ATCC 29213 in CAMHB medium by broth microdilution method in presence of 0.002% polysorbate 80
Staphylococcus aureus [15] = assay: Antibacterial activity against Staphylococcus aureus clinical isolate by broth microdilution method in presence of 0.002% polysorbate 80
Staphylococcus [16] = assay: Antibacterial activity against coagulase-negative Staphylococcus clinical isolate by broth microdilution method in presence of 0.002% polysorbate 80
Streptococcus pneumoniae [17] = assay: Antibacterial activity against Streptococcus pneumoniae clinical isolate by broth microdilution method in presence of 0.002% polysorbate 80
Streptococcus pneumoniae [18] = assay: Ratio of MIC for Streptococcus pneumoniae clinical isolate to MIC for Streptococcus pneumoniae clinical isolate in presence of 0.002% polysorbate 80
Streptococcus agalactiae [19] = assay: Antibacterial activity against Streptococcus agalactiae clinical isolate using 2% LHB by broth microdilution method
Staphylococcus [20] = assay: Antibacterial activity against coagulase-negative Staphylococcus clinical isolate by broth microdilution method
Enterococcus faecalis [21] = assay: Ratio of MIC for Enterococcus faecalis clinical isolate to MIC for Enterococcus faecalis clinical isolate in presence of 0.002% polysorbate 80
Staphylococcus [22] = assay: Ratio of MIC for coagulase-negative Staphylococcus clinical isolate to MIC for coagulase-negative Staphylococcus clinical isolate in presence of 0.002% polysorbate 80
Staphylococcus aureus [23] = assay: Antibacterial activity against Staphylococcus aureus ATCC 29213 in CAMHB medium by broth microdilution method in absence of 0.002% polysorbate 80
Enterococcus faecalis [24] = assay: Antibacterial activity against Enterococcus faecalis ATCC 29212 in CAMHB medium containing 2% LHB by broth microdilution method in presence of 0.002% polysorbate 80
Streptococcus pyogenes [25] = assay: Antibacterial activity against Streptococcus pyogenes clinical isolate by broth microdilution method
Streptococcus pneumoniae [26] = assay: Antibacterial activity against Streptococcus pneumoniae ATCC 49619 in CAMHB medium containing 2% LHB by broth microdilution method in presence of 0.002% polysorbate 80
Staphylococcus aureus [27] = assay: Antibacterial activity against Staphylococcus aureus clinical isolate by broth microdilution method
Enterococcus faecium [28] = assay: Ratio of MIC for Enterococcus faecium clinical isolate to MIC for Enterococcus faecium clinical isolate in presence of 0.002% polysorbate 80
Streptococcus pyogenes [29] = assay: Antibacterial activity against Streptococcus pyogenes clinical isolate by broth microdilution method in presence of 0.002% polysorbate 80
Enterococcus faecalis [30] = assay: Antibacterial activity against Enterococcus faecalis ATCC 29212 in CAMHB medium by broth microdilution method in absence of 0.002% polysorbate 80
Streptococcus pneumoniae [31] = assay: Antibacterial activity against Streptococcus pneumoniae ATCC 49619 in BHI broth by broth microdilution method in presence of 0.002% polysorbate 80
Enterococcus faecium [32] = assay: Antibacterial activity against Enterococcus faecium clinical isolate by broth microdilution method in presence of 0.002% polysorbate 80
Enterococcus faecalis [33] = assay: Antibacterial activity against Enterococcus faecalis ATCC 29212 in CAMHB medium by broth microdilution method in presence of 0.002% polysorbate 80
Staphylococcus aureus [34] = assay: Antibacterial activity against Staphylococcus aureus ATCC 29213 in CAMHB medium containing 2% LHB by broth microdilution method in absence of 0.002% polysorbate 80
Streptococcus agalactiae [35] = assay: Antibacterial activity against Streptococcus agalactiae clinical isolate using 2% LHB by broth microdilution method in presence of 0.002% polysorbate 80
Streptococcus viridans [36] = assay: Antibacterial activity against Streptococcus viridans group clinical isolate by broth microdilution method in presence of 0.002% polysorbate 80
Streptococcus pneumoniae [37] = assay: Antibacterial activity against Streptococcus pneumoniae ATCC 49619 in BHI broth containing 2% LHB by broth microdilution method in presence of 0.002% polysorbate 80
Staphylococcus aureus [38] = assay: Antibacterial activity against Staphylococcus aureus ATCC 29213 in CAMHB medium containing 2% LHB by broth microdilution method in presence of 0.002% polysorbate 80
Streptococcus pneumoniae [39] = assay: Antibacterial activity against Streptococcus pneumoniae ATCC 49619 in BHI broth containing 2% LHB by broth microdilution method in absence of 0.002% polysorbate 80
[40] = Antibacterial activity against Streptococcus Group G clinical isolate by broth microdilution method; settings: Streptococcus sp. 'group G'
Enterococcus faecium [41] = assay: Antibacterial activity against Enterococcus faecium clinical isolate by broth microdilution method
Streptococcus pneumoniae [42] = assay: Antibacterial activity against Streptococcus pneumoniae ATCC 49619 in CAMHB medium containing 2% LHB by broth microdilution method in absence of 0.002% polysorbate 80
Staphylococcus aureus [43] = assay: Antibacterial activity against Staphylococcus aureus ATCC 29213 assessed as reduction in compound MIC by broth microdilution method in presence of 0.002% polysorbate 80 in solvent
Staphylococcus aureus [44] = assay: Antibacterial activity against Staphylococcus aureus ATCC 29213 assessed as reduction in compound MIC by broth microdilution method in presence of 0.002% polysorbate 80 in inoculum

CC(=O)N[C@@H]1[C@H](Oc2c3cc4cc2Oc2ccc(cc2Cl)[C@@H](O[C@@H]2O[C@@H](CO)[C@@H](O)[C@H](O)[C@@H]2NC(C)=O)[C@@H]2NC(=O)[C@H](NC(=O)[C@@H]4NC(=O)[C@H]4NC(=O)[C@@H](Cc5ccc(c(Cl)c5)O3)NC(=O)[C@H](N)c3ccc(O)c(c3)Oc3cc(O)cc4c3)c3ccc(O)c(c3)-c3c(O[C@H]4O[C@H](CO)[C@@H](O)[C@@H](O)[C@@H]4O)cc(O)cc3[C@@H](C(=O)O)NC2=O)O[C@@H](CO)[C@@H](O)[C@@H]1O
1: Ratio (Streptococcus agalactiae [2]) | Ratio (Staphylococcus aureus [13]) | Ratio (Streptococcus pneumoniae [18]) | Ratio (Staphylococcus [22])
1 µg/mL: MIC (Enterococcus faecalis [4]) | MIC (Staphylococcus aureus [34])
64 µg/mL: MIC90 (Enterococcus faecium [41])
0.5: Ratio (Streptococcus viridans [7]) | Ratio (Enterococcus faecium [28])
2 µg/mL: MIC90 (Staphylococcus [16]) | MIC90 (Staphylococcus [20])
0.06 µg/mL: MIC (Streptococcus pneumoniae [5]) | MIC90 (Streptococcus pneumoniae [5]) | MIC (Streptococcus pneumoniae [17]) | MIC90 (Streptococcus pneumoniae [17]) | MIC90 (Streptococcus agalactiae [19]) | MIC90 (Streptococcus pyogenes [25]) | MIC90 (Streptococcus agalactiae [35])
0.03 µg/mL: MIC (Streptococcus pneumoniae [3]) | MIC [8] | MIC [9] | MIC [12] | MIC (Streptococcus pneumoniae [26]) | MIC90 (Streptococcus pyogenes [29]) | MIC (Streptococcus pneumoniae [31]) | MIC (Streptococcus pneumoniae [37]) | MIC (Streptococcus pneumoniae [39]) | MIC [40] | MIC (Streptococcus pneumoniae [42])
4: Ratio (Enterococcus faecalis [21])
2: Ratio (Streptococcus pyogenes [1])
0.5 µg/mL: MIC90 (Enterococcus faecalis [6]) | MIC (Staphylococcus aureus [14]) | MIC90 (Staphylococcus aureus [15]) | MIC (Staphylococcus aureus [23]) | MIC (Enterococcus faecalis [24]) | MIC90 (Staphylococcus aureus [27]) | MIC (Enterococcus faecalis [30]) | MIC (Enterococcus faecalis [33]) | MIC (Staphylococcus aureus [38])
0.12 µg/mL: MIC90 (Streptococcus viridans [10]) | MIC90 (Enterococcus faecalis [11]) | MIC90 (Streptococcus viridans [36])
128 µg/mL: MIC90 (Enterococcus faecium [32])

CN[C@H](CC(C)C)C(=O)N[C@H]1C(=O)N[C@@H](CC(N)=O)C(=O)N[C@H]2C(=O)N[C@H]3C(=O)N[C@H](C(=O)N[C@H](C(=O)O)c4cc(O)cc(O)c4-c4cc3ccc4O)[C@H](O[C@H]3C[C@](C)(N)[C@@H](O)[C@H](C)O3)c3ccc(c(Cl)c3)Oc3cc2cc(c3O[C@@H]2O[C@H](CO)[C@@H](O)[C@H](O)[C@H]2O[C@H]2C[C@](C)(NCc3ccc(-c4ccc(Cl)cc4)cc3)[C@@H](O)[C@H](C)O2)Oc2ccc(cc2Cl)[C@H]1O [ORITAVANCIN]
0.25 µg/mL: MIC90 (Staphylococcus [16]) | MIC90 (Streptococcus pyogenes [25]) | MIC90 (Streptococcus pyogenes [29]) | MIC90 (Enterococcus faecium [32]) | MIC90 (Streptococcus agalactiae [35])
1: Ratio (Streptococcus pyogenes [1]) | Ratio (Streptococcus viridans [7]) | Ratio (Streptococcus pneumoniae [18])
1 µg/mL: MIC90 (Streptococcus viridans [10]) | MIC90 (Streptococcus agalactiae [19]) | MIC (Staphylococcus aureus [23]) | MIC90 (Streptococcus viridans [36])
0.016 µg/mL: MIC (Enterococcus faecalis [4])
0.12 µg/mL: MIC90 (Enterococcus faecalis [11]) | MIC90 (Staphylococcus aureus [15])
32: Ratio (Staphylococcus aureus [13])
0.002 µg/mL: MIC (Streptococcus pneumoniae [26])
0.5 µg/mL: MIC (Enterococcus faecalis [30])
4: fold change (FC) (Staphylococcus aureus [44])
2 µg/mL: MIC90 (Enterococcus faecalis [6])
4 µg/mL: MIC90 (Staphylococcus [20]) | MIC90 (Staphylococcus aureus [27]) | MIC90 (Enterococcus faecium [41])
16: fold change (FC) (Staphylococcus aureus [43]) | Ratio (Enterococcus faecalis [21]) | Ratio (Staphylococcus [22]) | Ratio (Enterococcus faecium [28])
0.03 µg/mL: MIC (Staphylococcus aureus [14]) | MIC (Enterococcus faecalis [24]) | MIC (Enterococcus faecalis [33]) | MIC (Staphylococcus aureus [34]) | MIC (Staphylococcus aureus [38])
0.008 µg/mL: MIC (Streptococcus pneumoniae [3])
0.004 µg/mL: MIC90 (Streptococcus pneumoniae [5]) | MIC [8] | MIC [9] | MIC [12] | MIC90 (Streptococcus pneumoniae [17]) | MIC [40]
0.001 µg/mL: MIC (Streptococcus pneumoniae [31]) | MIC (Streptococcus pneumoniae [37]) | MIC (Streptococcus pneumoniae [39]) | MIC (Streptococcus pneumoniae [42])

CN[C@H](CC(C)C)C(=O)N[C@H]1C(=O)N[C@@H](CC(N)=O)C(=O)N[C@H]2C(=O)N[C@H]3C(=O)N[C@H](C(=O)N[C@H](C(=O)O)c4cc(O)cc(O)c4-c4cc3ccc4O)[C@H](O)c3ccc(c(Cl)c3)Oc3cc2cc(c3O[C@@H]2O[C@H](CO)[C@@H](O)[C@H](O)[C@H]2O[C@H]2C[C@](C)(N)[C@H](O)[C@H](C)O2)Oc2ccc(cc2Cl)[C@H]1O [VANCOMYCIN]
2 µg/mL: MIC (Enterococcus faecalis [4]) | MIC90 (Enterococcus faecalis [6]) | MIC90 (Enterococcus faecalis [11]) | MIC90 (Staphylococcus [16])
0.12 µg/mL: MIC [8] | MIC [12]
0.5 µg/mL: MIC90 (Streptococcus viridans [10]) | MIC90 (Streptococcus agalactiae [19]) | MIC90 (Streptococcus agalactiae [35]) | MIC90 (Streptococcus viridans [36])
1 µg/mL: MIC90 (Staphylococcus aureus [15]) | MIC90 (Staphylococcus [20]) | MIC90 (Staphylococcus aureus [27])
> 256 µg/mL: MIC90 (Enterococcus faecium [32]) | MIC90 (Enterococcus faecium [41])
0.25 µg/mL: MIC (Streptococcus pneumoniae [3]) | MIC90 (Streptococcus pneumoniae [5]) | MIC [9] | MIC90 (Streptococcus pneumoniae [17]) | MIC (Streptococcus pyogenes [25]) | MIC90 (Streptococcus pyogenes [25]) | MIC (Streptococcus pneumoniae [26]) | MIC (Streptococcus pyogenes [29]) | MIC90 (Streptococcus pyogenes [29]) | MIC (Streptococcus pneumoniae [31]) | MIC (Streptococcus pneumoniae [37]) | MIC (Streptococcus pneumoniae [39]) | MIC [40] | MIC (Streptococcus pneumoniae [42])

O=C(O)c1cn(C2CC2)c2cc(N3CCNCC3)c(F)cc2c1=O [CIPROFLOXACIN]
0.5 µg/mL: MIC (Enterococcus faecalis [4]) | MIC (Staphylococcus aureus [14]) | MIC (Staphylococcus aureus [23]) | MIC (Enterococcus faecalis [24]) | MIC (Enterococcus faecalis [30]) | MIC (Enterococcus faecalis [33]) | MIC (Staphylococcus aureus [34]) | MIC (Staphylococcus aureus [38])
1 µg/mL: MIC (Streptococcus pneumoniae [26]) | MIC (Streptococcus pneumoniae [37])
